Molecular target: USP1 (construct USP1 (I-785, GG670, 671AA)/UAF1 (I-677)-Flag) (Homo sapiens (Human), UniProt O94782, G670A/G671A)
Experiment: Ubiquitin-Rhodamine 110 assay for USP1 activity
Assay type: biochemical
Conditions: USP1/UAF1 25 pM, Ub-Rh110 25 nM, 30 min preincubation
Method: Example 53: Ubitquin-Rhodamine 110 Assay for USP1 Activity
The HTS assay was performed in a final volume of 20 μL in assay buffer containing 20 mM Tris-HCl (pH 8.0, (1M Tris-HCl, pH 8.0 solution; Corning 46-031-CM)), 2 mM CaCl2 (1M Calcium Chloride solution; Sigma #21114) 1 mM GSH (L-Glutathione reduced; Sigma #G4251), 0.01% Prionex ([…] filtered, Sigma #G-0411), and 0.01% Triton X-100. Stock compound solutions were stored at −20° C. as 10 mM in DMSO. Up to 1 month prior to the assay, 2 mM test compounds were pre-dispensed into assay plates (Black, low volume; Corning #3820) and frozen at −20° C. Prestamped assay plates were allowed to come to room temperature on the day of the assay. For the screen, 100 nL of 2 mM was pre-dispensed for a final screening concentration of […] (DMSO(fc)=0.5%). The final concentration of the enzyme (USP1, construct USP1 (I-785, GG670, 671AA)/UAF1 (I-677)-Flag; Viva) in the assay was 100 pM. Final substrate (Ub-Rh110; Ubiquitin-Rhodamine 110, R&D Systems #U-555) concentration was 25 nM with [Ub-Rh110]<<Km. […] Plates were incubated stacked for 45 minutes at room temperature before fluorescence was read on the Envision (Excitation at 485 nm and Emission at 535 nm; Perkin Elmer) or on the PheraSTAR (Excitation at 485 nm and Emission at 535 nm; BMG Labtech)
Nanoliter quantities of either an 8-point or 10-point, 3-fold serial dilution in DMSO was pre-dispensed into assay plates (Perkin Elmer, ProxiPlate-384 F Plus, #6008269) for a final test concentration range of either 25 μM to 11 nM or 25 μM to 1.3 nM, respectively. The final concentration of the enzyme (USP1, construct USP1 (I-785, GG670, 671AA)/UAF1 (I-677)-Flag; Viva) in the assay was 25 pM. Final substrate (Ub-Rh110; Ubiquitin-Rhodamine 110, R&D Systems #U-555) concentration was 25 nM with [Ub-Rh110]<<Km. […] Plates were incubated stacked for 20 minutes at room temperature before 5 μL of stop solution (final concentration of 10 mM citric acid in assay buffer (Sigma, #251275-500G)). Fluorescence was read on the Envision (Excitation at 485 nm and Emission at 535 nm; Perkin Elmer) or on the PheraSTAR (Excitation at 485 nm and Emission at 535 nm; BMG Labtech).
For both assay formats data were reported as percent inhibition compared with control wells based on the following equation: % inh=[1−((FLU−AveLow)/(AveHigh−AveLow))]×100 where FLU=measured Fluorescence, AveLow=average Fluorescence of no enzyme control (n=16), and AveHigh=average Fluorescence of DMSO control (n=16). IC50 values were determined by curve fitting of the standard 4 parameter logistic fitting algorithm included in the Activity Base software package: IDBS XE Designer Model205. Data is fitted using the Levenburg Marquardt algorithm.

USP1 (construct USP1 (I-785, GG670, 671AA)/UAF1 (I-677)-Flag), sequence (O94782 whole entry G670A/G671A): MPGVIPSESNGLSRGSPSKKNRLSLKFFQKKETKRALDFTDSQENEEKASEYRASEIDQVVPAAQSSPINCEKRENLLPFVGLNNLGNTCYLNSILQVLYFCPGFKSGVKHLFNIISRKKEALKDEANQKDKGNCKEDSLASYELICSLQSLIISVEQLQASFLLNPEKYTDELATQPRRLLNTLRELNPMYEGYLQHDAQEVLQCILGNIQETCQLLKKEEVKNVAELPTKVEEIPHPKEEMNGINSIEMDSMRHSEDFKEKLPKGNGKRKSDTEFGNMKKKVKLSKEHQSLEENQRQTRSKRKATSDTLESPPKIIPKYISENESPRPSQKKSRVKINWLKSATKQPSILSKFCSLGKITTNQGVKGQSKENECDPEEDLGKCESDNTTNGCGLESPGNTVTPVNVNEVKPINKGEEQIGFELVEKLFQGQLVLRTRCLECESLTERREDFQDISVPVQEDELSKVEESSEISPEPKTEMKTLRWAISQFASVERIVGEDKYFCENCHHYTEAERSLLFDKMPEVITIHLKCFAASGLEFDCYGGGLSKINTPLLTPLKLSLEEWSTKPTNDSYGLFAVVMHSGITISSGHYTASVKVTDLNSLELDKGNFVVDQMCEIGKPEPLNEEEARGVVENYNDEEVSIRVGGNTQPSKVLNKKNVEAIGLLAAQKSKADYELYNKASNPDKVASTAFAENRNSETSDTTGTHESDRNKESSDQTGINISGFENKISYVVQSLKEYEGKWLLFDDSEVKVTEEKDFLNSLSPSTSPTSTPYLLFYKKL
USP1 (construct USP1 (I-785, GG670, 671AA)/UAF1 (I-677)-Flag), sequence (Q8TAF3 whole entry partner): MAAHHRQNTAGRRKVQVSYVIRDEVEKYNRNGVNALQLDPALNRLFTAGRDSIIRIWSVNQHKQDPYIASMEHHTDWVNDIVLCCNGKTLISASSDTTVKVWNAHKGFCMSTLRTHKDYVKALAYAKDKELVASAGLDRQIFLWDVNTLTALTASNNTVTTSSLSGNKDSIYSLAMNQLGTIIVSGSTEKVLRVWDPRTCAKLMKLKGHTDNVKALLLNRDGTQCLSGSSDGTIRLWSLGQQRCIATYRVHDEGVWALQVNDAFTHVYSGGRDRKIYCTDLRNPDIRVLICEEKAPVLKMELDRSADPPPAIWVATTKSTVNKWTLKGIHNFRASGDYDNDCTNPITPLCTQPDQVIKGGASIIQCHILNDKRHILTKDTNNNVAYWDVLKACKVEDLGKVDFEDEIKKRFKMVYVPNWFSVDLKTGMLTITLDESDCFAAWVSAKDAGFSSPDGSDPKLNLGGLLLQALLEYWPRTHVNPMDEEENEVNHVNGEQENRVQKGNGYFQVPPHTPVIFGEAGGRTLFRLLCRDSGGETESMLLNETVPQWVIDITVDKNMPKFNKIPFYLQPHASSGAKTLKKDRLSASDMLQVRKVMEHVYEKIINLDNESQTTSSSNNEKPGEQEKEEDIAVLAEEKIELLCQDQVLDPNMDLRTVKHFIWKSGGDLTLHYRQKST

Row | Structure (SMILES) | IC50 [nM]
1 | CC(C)c1ccccc1-c1ncc2[nH]c(=O)n([C@H](C)c3ccc(-n4cccn4)cc3)c2n1 (single isomer, unassigned) [Compound I-158] | < 50
2 | CC(C)c1ccccc1-c1ncc2[nH]c(=O)n(Cc3ccc(-n4ccc([C@H]5CCCNC5)n4)cc3)c2n1 (single isomer, unassigned) [Compound I-225] | 50 to 200
3 | Cc1cc(C)n(-c2ccc(Cn3c(=O)[nH]c4cnc(-c5ccccc5C(C)C)nc43)cc2)n1 [Compound I-1, 9-(4-(3,5-Dimethyl-1H-pyrazol-1-yl)benzyl)-2-(2-isopropylphenyl)-7,9-dihydro-8H-purin-8-one] | < 50
4 | CC(C)c1ncccc1-c1ncc2[nH]c(=O)n(Cc3ccc(-n4nccn4)cc3)c2n1 [Compound I-3, 9-(4-(2H-1,2,3-triazol-2-yl)benzyl)-2-(2-isopropylpyridin-3-yl)-7,9-dihydro-8H-purin-8-one] | 200 to 2000
5 | O=c1[nH]c2cnc(-c3cccnc3OC(F)F)nc2n1Cc1ccc(-n2nccn2)cc1 [Compound I-4, 9-(4-(2H-1,2,3-triazol-2-yl)benzyl)-2-(2-(difluoromethoxy)pyridin-3-yl)-7,9-dihydro-8H-purin-8-one] | > 2000
6 | CC(C)COc1ncccc1-c1ncc2[nH]c(=O)n(Cc3ccc(-n4nccn4)cc3)c2n1 [Compound I-5, 9-(4-(2H-1,2,3-triazol-2-yl)benzyl)-2-(2-isobutoxypyridin-3-yl)-7,9-dihydro-8H-purin-8-one] | > 2000
7 | CC(C)c1ccccc1-c1ncc2c(n1)n(Cc1ccc(-n3cccn3)cc1)c(=O)n2C [Compound I-6, 9-(4-(1H-pyrazol-1-yl)benzyl)-2-(2-isopropylphenyl)-7-methyl-7,9-dihydro-8H-purin-8-one] | 50 to 200
8 | CC(C)c1ncccc1-c1ncc2c(n1)n(Cc1ccc(-n3cccn3)cc1)c(=O)n2C [Compound I-7, 9-(4-(1H-pyrazol-1-yl)benzyl)-2-(2-isopropylpyridin-3-yl)-7-methyl-7,9-dihydro-8H-purin-8-one] | 200 to 2000
9 | CC(C)c1c(F)cccc1-c1ncc2c(n1)n(Cc1ccc(-n3cccn3)cc1)c(=O)n2C [Compound I-8, 9-(4-(1H-pyrazol-1-yl)benzyl)-2-(3-fluoro-2-isopropylphenyl)-7-methyl-7,9-dihydro-8H-purin-8-one] | < 50
10 | CC(C)c1ccc(F)cc1-c1ncc2c(n1)n(Cc1ccc(-n3cccn3)cc1)c(=O)n2C [Compound I-9, 9-(4-(1H-pyrazol-1-yl)benzyl)-2-(5-fluoro-2-isopropylphenyl)-7-methyl-7,9-dihydro-8H-purin-8-one] | 200 to 2000
11 | CC(C)c1cc(F)ccc1-c1ncc2c(n1)n(Cc1ccc(-n3cccn3)cc1)c(=O)n2C [Compound I-10, 9-(4-(1H-pyrazol-1-yl)benzyl)-2-(4-fluoro-2-isopropylphenyl)-7-methyl-7,9-dihydro-8H-purin-8-one] | 200 to 2000
12 | CC(C)c1cccc(F)c1-c1ncc2c(n1)n(Cc1ccc(-n3cccn3)cc1)c(=O)n2C [Compound I-11, 9-(4-(1H-pyrazol-1-yl)benzyl)-2-(2-fluoro-6-isopropylphenyl)-7-methyl-7,9-dihydro-8H-purin-8-one] | < 50
13 | CC(C)c1ncccc1-c1ncc2[nH]c(=O)n([C@@H](C)c3ccc(-n4cccn4)cc3)c2n1 [Compound I-13, (S)-9-(1-(4-(1H-pyrazol-1-yl)phenyl)ethyl)-2-(2-isopropylpyridin-3-yl)-7,9-dihydro-8H-purin-8-one] | 200 to 2000
14 | CC(C)c1ncccc1-c1ncc2[nH]c(=O)n([C@H](C)c3ccc(-n4cccn4)cc3)c2n1 [Compound I-14, (R)-9-(1-(4-(1H-pyrazol-1-yl)phenyl)ethyl)-2-(2-isopropylpyridin-3-yl)-7,9-dihydro-8H-purin-8-one] | 50 to 200
15 | CC(C)Oc1cc(F)ccc1-c1ncc2[nH]c(=O)n(Cc3ccc(-n4nccn4)cc3)c2n1 [Compound I-15, 9-(4-(2H-1,2,3-triazol-2-yl)benzyl)-2-(4-fluoro-2-isopropoxyphenyl)-7,9-dihydro-8H-purin-8-one] | > 2000
16 | COc1c(F)cccc1-c1ncc2[nH]c(=O)n(Cc3ccc(-n4nccn4)cc3)c2n1 [Compound I-16, 9-(4-(2H-1,2,3-triazol-2-yl)benzyl)-2-(3-fluoro-2-methoxyphenyl)-7,9-dihydro-8H-purin-8-one] | > 2000
17 | CC(C)c1ccncc1-c1ncc2c(n1)n(Cc1ccc(-n3cccn3)cc1)c(=O)n2C [Compound I-17, 9-(4-(1H-pyrazol-1-yl)benzyl)-2-(4-isopropylpyridin-3-yl)-7-methyl-7,9-dihydro-8H-purin-8-one] | > 2000
18 | O=c1[nH]c2cnc(-c3cccnc3OCC(F)(F)F)nc2n1Cc1ccc(-n2cccn2)cc1 [Compound I-18, 9-(4-(1H-pyrazol-1-yl)benzyl)-2-(2-(2,2,2-trifluoroethoxy)pyridin-3-yl)-7,9-dihydro-8H-purin-8-one] | 200 to 2000
19 | CCOc1ncccc1-c1ncc2[nH]c(=O)n(Cc3ccc(-n4cccn4)cc3)c2n1 [Compound I-19, 9-(4-(1H-pyrazol-1-yl)benzyl)-2-(2-ethoxypyridin-3-yl)-7,9-dihydro-8H-purin-8-one] | 200 to 2000
20 | COCCOc1ccccc1-c1ncc2[nH]c(=O)n(Cc3ccc(-n4cccn4)cc3)c2n1 [Compound I-20, 9-(4-(1H-pyrazol-1-yl)benzyl)-2-(2-(2-methoxyethoxy)phenyl)-7,9-dihydro-8H-purin-8-one] | 200 to 2000
21 | CCCOc1ccccc1-c1ncc2[nH]c(=O)n(Cc3ccc(-n4cccn4)cc3)c2n1 [Compound I-21, 9-(4-(1H-pyrazol-1-yl)benzyl)-2-(2-propoxyphenyl)-7,9-dihydro-8H-purin-8-one] | 50 to 200
22 | O=c1[nH]c2cnc(-c3ccccc3OCC(F)(F)F)nc2n1Cc1ccc(-n2cccn2)cc1 [Compound I-22, 9-(4-(1H-pyrazol-1-yl)benzyl)-2-(2-(2,2,2-trifluoroethoxy)phenyl)-7,9-dihydro-8H-purin-8-one] | 200 to 2000
23 | O=c1[nH]c2cnc(-c3ccccc3OCC3CC3)nc2n1Cc1ccc(-n2cccn2)cc1 [Compound I-23, 9-(4-(1H-pyrazol-1-yl)benzyl)-2-(2-(cyclopropylmethoxy)phenyl)-7,9-dihydro-8H-purin-8-one] | 50 to 200
24 | O=c1[nH]c2cnc(-c3cccnc3OCC(F)(F)F)nc2n1[C@@H]1CC[C@H]1c1ccc(-n2cccn2)cc1 [Compound I-24, 9-((1R,2S)-2-(4-(1H-pyrazol-1-yl)phenyl)cyclobutyl)-2-(2-(2,2,2-trifluoroethoxy)pyridin-3-yl)-7,9-dihydro-8H-purin-8-one] | 50 to 200
25 | O=c1[nH]c2cnc(-c3cccc4c3OC(F)(F)O4)nc2n1Cc1ccc(-n2cccn2)cc1 [Compound I-25, 9-(4-(1H-pyrazol-1-yl)benzyl)-2-(2,2-difluorobenzo[d][1,3]dioxol-4-yl)-7,9-dihydro-8H-purin-8-one] | 50 to 200
26 | Cn1cc(C(F)(F)F)nc1-c1ccc(Cn2c(=O)[nH]c3cnc(-c4cccnc4OCC(F)(F)F)nc32)cc1 [Compound I-26, 9-(4-(1-methyl-4-(trifluoromethyl)-1H-imidazol-2-yl)benzyl)-2-(2-(2,2,2-trifluoroethoxy)pyridin-3-yl)-7,9-dihydro-8H-purin-8-one] | < 50
27 | CCc1ccccc1-c1ncc2[nH]c(=O)n(Cc3ccc(-n4cccn4)cc3)c2n1 [Compound I-27, 9-(4-(1H-pyrazol-1-yl)benzyl)-2-(2-ethylphenyl)-7,9-dihydro-8H-purin-8-one] | 50 to 200
28 | Cn1ccc2cccc(-c3ncc4[nH]c(=O)n(Cc5ccc(-n6cccn6)cc5)c4n3)c21 [Compound I-29, 9-(4-(1H-pyrazol-1-yl)benzyl)-2-(1-methyl-1H-indol-7-yl)-7,9-dihydro-8H-purin-8-one] | 200 to 2000
29 | Cn1cc(C(F)(F)F)nc1-c1ccc(Cn2c(=O)[nH]c3cnc(-c4cccnc4C4CC4)nc32)cc1 [Compound I-30, 2-(2-cyclopropylpyridin-3-yl)-9-(4-(1-methyl-4-(trifluoromethyl)-1H-imidazol-2-yl)benzyl)-7,9-dihydro-8H-purin-8-one] | < 50

— patent US10189841B2, “Purinones as ubiquitin-specific protease 1 inhibitors” (Forma Therapeutics, Inc., priority 2015, dated 2019)
